Read-outs that look alike come from different tables or passages of the source.
Assays:
[1] = tested on: M. turberculosis Dormancy Regulon; details: Kumar et al., cited from earlier work
KatG = KatG (Mycobacterium tuberculosis, UniProt P9WIE5); experiment: CO detection: KatG/tBHP activation, CO trapped by deoxyMyoglobin (MbCO, absorbance 540 nm); type: biochemical
[2] = tested on: dos regulon genes (dosR, dosS, fdxA); type: cell-based, M. bovis BCG
[3] = tested on: dos regulon genes (dosR, dosS, fdxA); type: cell-based; details: Mtb H37Rv treated for 4 hours; Real time PCR

Chain of KatG (P9WIE5 whole entry): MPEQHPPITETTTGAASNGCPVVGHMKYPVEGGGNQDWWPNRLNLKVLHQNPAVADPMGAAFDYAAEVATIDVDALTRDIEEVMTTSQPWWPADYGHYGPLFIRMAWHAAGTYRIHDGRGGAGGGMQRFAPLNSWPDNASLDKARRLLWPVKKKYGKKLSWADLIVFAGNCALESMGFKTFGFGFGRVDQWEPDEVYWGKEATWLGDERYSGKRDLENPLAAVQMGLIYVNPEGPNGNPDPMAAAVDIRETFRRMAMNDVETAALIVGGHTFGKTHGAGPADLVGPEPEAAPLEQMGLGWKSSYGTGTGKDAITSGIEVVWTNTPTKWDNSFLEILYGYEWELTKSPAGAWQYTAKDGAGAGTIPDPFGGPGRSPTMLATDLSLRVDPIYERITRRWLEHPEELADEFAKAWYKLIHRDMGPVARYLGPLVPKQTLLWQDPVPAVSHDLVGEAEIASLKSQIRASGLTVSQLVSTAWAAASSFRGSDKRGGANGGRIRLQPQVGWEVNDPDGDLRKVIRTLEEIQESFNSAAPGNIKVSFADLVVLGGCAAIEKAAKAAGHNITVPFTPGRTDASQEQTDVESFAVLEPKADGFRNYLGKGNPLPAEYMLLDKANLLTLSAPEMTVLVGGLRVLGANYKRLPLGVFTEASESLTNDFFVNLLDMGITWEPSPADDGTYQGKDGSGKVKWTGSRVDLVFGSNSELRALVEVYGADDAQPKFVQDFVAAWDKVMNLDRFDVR

[C-]#[O+] [CO]
+CO/−CO ([1]; gene Rv0079): 3.3 | +CO/−CO ([1]; gene Rv0080): 2.9 | +CO/−CO ([1]; gene Rv0081): 2.3 | +CO/−CO ([1]; gene Rv0669): 6 | +CO/−CO ([1]; gene Rv0670 nroZ): 3.2 | +CO/−CO ([1]; gene Rv0671): 2.3 | +CO/−CO ([1]; gene Rv0672): 2.8 | +CO/−CO ([1]; gene Rv0673 pncB2): 1.5 | +CO/−CO ([1]; gene Rv0674): 1.7 | +CO/−CO ([1]; gene Rv1733): 2.3 | +CO/−CO ([1]; gene Rv1734): 2 | +CO/−CO ([1]; gene Rv1735): 1.6 | +CO/−CO ([1]; gene Rv1736 narX): 2.4 | +CO/−CO ([1]; gene Rv1737 narK2): 2.1 | +CO/−CO ([1]; gene Rv1738): 5.8 | +CO/−CO ([1]; gene Rv1812): 1.9 | +CO/−CO ([1]; gene Rv1813): 5.1 | +CO/−CO ([1]; gene Rv1996): 2.4 | +CO/−CO ([1]; gene Rv1997 ctpF): 6.8 | +CO/−CO ([1]; gene Rv2003): 3.3 | +CO/−CO ([1]; gene Rv2004): 4.8 | +CO/−CO ([1]; gene Rv2005): 6.7 | +CO/−CO ([1]; gene Rv2006 otsB1): 2.6 | +CO/−CO ([1]; gene Rv2007 foxA): 7.1 | +CO/−CO ([1]; gene Rv2028): 1.9 | +CO/−CO ([1]; gene Rv2029 pkfB): 6.6 | +CO/−CO ([1]; gene Rv2030): 9.2 | +CO/−CO ([1]; gene Rv2031 hsoX (acr)): 5.2 | +CO/−CO ([1]; gene Rv2032 acg): 8.4 | +CO/−CO ([1]; gene Rv2823 TB31.7): 6.8 | +CO/−CO ([1]; gene Rv2824): 7.1 | +CO/−CO ([1]; gene Rv2825): 2.2 | +CO/−CO ([1]; gene Rv2826 hrp1): 10 | +CO/−CO ([1]; gene Rv2827): 4.2 | +CO/−CO ([1]; gene Rv2828): 6.8 | +CO/−CO ([1]; gene Rv2829): 2.6 | +CO/−CO ([1]; gene Rv2830): 5.2 | +CO/−CO ([1]; gene Rv2831): 2.7 | +CO/−CO ([1]; gene Rv3126): 1.8 | +CO/−CO ([1]; gene Rv3127): 2.7 | +CO/−CO ([1]; gene Rv3130 tgs1): 11 | +CO/−CO ([1]; gene Rv3131): 3.3 | +CO/−CO ([1]; gene Rv3132 dos8 (devS)): 3.1 | +CO/−CO ([1]; gene Rv3133 dosR (devR)): 3 | +CO/−CO ([1]; gene Rv3134): 7.1

NNC(=O)c1ccncc1 [INH, Isoniazid]
CO produced from activated compound (KatG): dependent upon dose, time, and KatG | expression of dos regulon genes (dosR, dosS, fdxA) [2]: significantly increased | expression of dos regulon genes (dosR, dosS, fdxA) [3]: significantly increased

NC(=O)c1ccc[n+]([C@@H]2O[C@H](COP(=O)([O-])OP(=O)(O)OC[C@H]3O[C@@H](n4cnc5c(N)ncnc54)[C@H](O)[C@@H]3O)[C@@H](O)[C@H]2O)c1 [NAD+, NAD]
formation of MbCO (CO-Mb) (KatG; various dosages, Kat G 22.44 μg per reaction, 1 mM tBHP): inhibited

Reference: patent US9579381B2 (priority 2012, dated 2017)
